This assay concerns the target T1, human OX2 receptor (Homo sapiens, UniProt O43614).
T1 construct: expressed in transfected cells
T1 sequence (O43614 1-444): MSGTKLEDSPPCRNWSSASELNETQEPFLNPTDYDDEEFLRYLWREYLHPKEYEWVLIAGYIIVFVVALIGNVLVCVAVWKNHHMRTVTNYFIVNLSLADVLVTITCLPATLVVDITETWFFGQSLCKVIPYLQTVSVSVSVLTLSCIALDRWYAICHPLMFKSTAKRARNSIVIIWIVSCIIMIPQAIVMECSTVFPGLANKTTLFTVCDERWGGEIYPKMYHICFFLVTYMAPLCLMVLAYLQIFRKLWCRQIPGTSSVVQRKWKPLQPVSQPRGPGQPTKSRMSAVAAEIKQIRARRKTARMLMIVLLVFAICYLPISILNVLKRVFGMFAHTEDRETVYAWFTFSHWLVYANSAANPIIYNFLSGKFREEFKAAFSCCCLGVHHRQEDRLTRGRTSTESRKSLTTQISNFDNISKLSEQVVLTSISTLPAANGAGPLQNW
Kind of assay: Measurement of orexin type 2 receptor agonist activity (Fluo-4 calcium fluorescence, FDSS). In kind it is cell-based. The following applies: compound at 3 μM; CHO cells forcibly expressing human OX2 receptor; DMSO = 0%, orexin A (human) 10 nM = 100%. The source says:
Experimental Example 1: Obtainment of Cell Stably Expressing Human Orexin Type 2 Receptor (hOX2R)
To obtain a cell clone stably expressing human orexin type 2 receptor, human orexin type 2 receptor cDNA was inserted into pcDNA3.1(+) plasmid vector (Invitrogen), and a plasmid DNA for expression of human orexin type 2 receptor (pcDNA3.1(+)/hOX2R) was cloned. The plasmid DNA was introduced into CHO-dhfr cell by an electroporation method, and human orexin type 2 receptor expressing clone cells were obtained by limiting dilution method by using G418 drug resistance as a selection marker.
Experimental Example 2: Measurement of Orexin Type 2 Receptor Agonist Activity
CHO cells forcibly expressing human OX2 receptor were seeded in each well of 384 well black transparent bottom plate (BD Falcon) at 7,500 cells/well, and cultured for one day in a 5% CO2 incubator at 37° C. After removal of the medium in the cell plate, assay buffer A containing a calcium indicator (HESS (Life Technologies), 20 mM HEPES (Life Technologies), 0.1% BSA (Wako Pure Chemical Industries, Ltd.), 2.5 μg/mL Fluo-4 AM (DOJINDO Chemical), 0.08% Pluronic F127 (DOJINDO Chemical), 1.25 mM probenecid (DOJINDO Chemical)) was added at 30 μL/well. The plate was stood for 30 min in a 5% CO2 incubator at 37° C., and further stood at room temperature for 30 min. A test compound prepared by diluting with assay buffer B (HESS, 20 mM HEPES, 0.1% BSA) was added at 10 μL/well, and the fluorescence value was measured by FDSSμCELL (Hamamatsu Photonics K.K.) every one sec for 1 min, and thereafter every two sec for 1 min 40 sec. The activity (%) of the test compound was calculated assuming that variation in the fluorescence value when DMSO was added instead of the test compound was 0% […], and variation in the fluorescence value when orexin A (human) (PEPTIDE INSTITUTE, INC.) was added at the final concentration of 10 nM was 100% […]. The activity of each compound at the concentration of 3 μM was shown below.

For the compound `COc1ccccc1S(=O)(=O)Nc1cccc(O[C@@H]2CN(C(=O)c3cc(C)ccc3C)C[C@H]2OC)c1` [Example 63, N-(3-(((3R,4R)-1-(2,5-dimethylbenzoyl)-4-methoxypyrrolidin-3-yl)oxy)phenyl)-2-methoxybenzenesulfonamide], the “OX2R agonist activity (3 μM, %)” value is given as 112%.
As for `COc1ccc(-c2cccc(C(=O)N(C)C)c2)cc1S(=O)(=O)Nc1cccc(NC2CCN(C(=O)c3cccc(C)c3)C2)c1` (stereo not shown) [Example 1, 4′-methoxy-N,N-dimethyl-3′-((3-((1-(3-methylbenzoyl)pyrrolidin-3-yl)amino)phenyl)sulfamoyl)biphenyl-3-carboxamide], the figure is 103%; as for `COc1ccccc1S(=O)(=O)Nc1cccc(C[C@@H]2CN(C(=O)c3cc(C)ccc3C)C[C@H]2OC)c1` (relative stereo) [Example 119, trans-N-(3-((1-(2,5-dimethylbenzoyl)-4-methoxypyrrolidin-3-yl)methyl)phenyl)-2-methoxybenzenesulfonamide], 57%; as for `COc1ccccc1CC(=O)N1CC[C@H](Oc2cccc(NS(=O)(=O)c3cc(-c4cccc(C(=O)N(C)C)c4)ccc3OC)c2)C1` [Example 17, 4′-methoxy-3′-((3-(((3S)-1-((2-methoxyphenyl)acetyl)pyrrolidin-3-yl)oxy)phenyl)sulfamoyl)-N,N-dimethylbiphenyl-3-carboxamide], 90%.
To `COc1ccc(-c2cccc(C(=O)N(C)C)c2)cc1S(=O)(=O)Nc1cccc(O[C@H]2CCN(C(=O)c3cnn(C)c3-c3ccccc3)C2)c1` [Example 13, 4′-methoxy-N,N-dimethyl-3′-((3-(((3S)-1-((1-methyl-5-phenyl-1H-pyrazol-4-yl)carbonyl)pyrrolidin-3-yl)oxy)phenyl)sulfamoyl)biphenyl-3-carboxamide] belongs 97%; to `COc1ccccc1S(=O)(=O)Nc1cccc(O[C@@H]2CN(C(=O)c3cc(C)ccc3C)C[C@H]2OC)c1Cl` (relative stereo) [Example 117, trans-N-(2-chloro-3-((1-(2,5-dimethylbenzoyl)-4-methoxypyrrolidin-3-yl)oxy)phenyl)-2-methoxybenzenesulfonamide], 66%.
As for `COc1ccc(-c2cccc(C(=O)N(C)C)c2)cc1S(=O)(=O)Nc1cccc(O[C@H]2CCN(C(=O)c3ccccc3C)C2)c1` [Example 7, 4′-methoxy-N,N-dimethyl-3′-((3-(((3S)-1-(2-methylbenzoyl)pyrrolidin-3-yl)oxy)phenyl)sulfamoyl)biphenyl-3-carboxamide], the figure is 92%; as for `CO[C@@H]1CN(C(=O)c2cc(C)ccc2C)C[C@H]1Oc1cccc(NS(=O)(=O)C2CCOCC2)c1` [Example 81, N-(3-(((3R,4R)-1-(2,5-dimethylbenzoyl)-4-methoxypyrrolidin-3-yl)oxy)phenyl)tetrahydro-2H-pyran-4-sulfonamide], 92%; as for `COc1ccccc1S(=O)(=O)Nc1cccc(O[C@@H]2CN(C(=O)C3(c4ccccc4)CC3)C[C@H]2OC)c1` [Example 76, 2-methoxy-N-(3-(((3R,4R)-4-methoxy-1-((1-phenylcyclopropyl)carbonyl)pyrrolidin-3-yl)oxy)phenyl)benzenesulfonamide], 79%.
With `COc1ccccc1S(=O)(=O)Nc1cncc(O[C@@H]2CN(C(=O)c3cc(C)ccc3C)C[C@H]2OC)c1` (relative stereo) [Example 106, trans-N-(5-((1-(2,5-dimethylbenzoyl)-4-methoxypyrrolidin-3-yl)oxy)pyridin-3-yl)-2-methoxybenzenesulfonamide], the “OX2R agonist activity (3 μM, %)” value was 104%.
To `COc1ccccc1S(=O)(=O)Nc1cccc(O[C@@H]2CN(C(=O)c3cc(C)ccc3C)C[C@H]2F)c1` (relative stereo) [Example 107, trans-N-(3-((1-(2,5-dimethylbenzoyl)-4-fluoropyrrolidin-3-yl)oxy)phenyl)-2-methoxybenzenesulfonamide] belongs 77%.
Turning to `COc1ccccc1S(=O)(=O)Nc1cccc(O[C@@H]2CN(C(=O)c3c(C)cccc3OC)C[C@H]2OC)c1` [Example 97, 2-methoxy-N-(3-(((3R,4R)-4-methoxy-1-(2-methoxy-6-methylbenzoyl)pyrrolidin-3-yl)oxy)phenyl)benzenesulfonamide], the “OX2R agonist activity (3 μM, %)” value worked out at 93%.
Consider `COc1ccccc1S(=O)(=O)Nc1cccc(O[C@@H]2CN(C(=O)c3cc(C)ccc3C)C[C@H]2OC)c1F` (relative stereo) [Example 87, trans-N-(3-((1-(2,5-dimethylbenzoyl)-4-methoxypyrrolidin-3-yl)oxy)-2-fluorophenyl)-2-methoxybenzenesulfonamide], for which the “OX2R agonist activity (3 μM, %)” value is 103%.
As to `COc1ccc(-c2cccc(C(=O)N(C)C)c2)cc1S(=O)(=O)Nc1cccc(O[C@H]2CCN(C(=O)c3c(C)cccc3C)C2)c1F` [Example 71, 3′-((3-(((3S)-1-(2,6-dimethylbenzoyl)pyrrolidin-3-yl)oxy)-2-fluorophenyl)sulfamoyl)-4′-methoxy-N,N-dimethylbiphenyl-3-carboxamide], the “OX2R agonist activity (3 μM, %)” value is reported as 89%.
Consider `COc1ccc(-c2cccc(C(=O)N(C)C)c2)cc1S(=O)(=O)Nc1cccc(CC2CCN(C(=O)c3cc(C)ccc3C)C2)n1` (stereo not shown) [Example 45, 3′-((6-((1-(2,5-dimethylbenzoyl)pyrrolidin-3-yl)methyl)pyridin-2-yl)sulfamoyl)-4′-methoxy-N,N-dimethylbiphenyl-3-carboxamide], for which the “OX2R agonist activity (3 μM, %)” value turned out to be 92%.
To `COc1ccc(-c2cccc(C(=O)N(C)C)c2)cc1S(=O)(=O)Nc1cc(O[C@H]2CCN(C(=O)c3c(C)cccc3C)C2)ccc1F` [Example 72, 3′-((5-(((3S)-1-(2,6-dimethylbenzoyl)pyrrolidin-3-yl)oxy)-2-fluorophenyl)sulfamoyl)-4′-methoxy-N,N-dimethylbiphenyl-3-carboxamide] belongs 85%.

(Values after patent US11034700B2, “Substituted pyrrolidine compound and use thereof” (Takeda Pharmaceutical Company Limited, priority 2017, dated 2021).)
